Source: PMC8073907, “Peptide targeting of lysophosphatidylinositol-sensing GPR55 for osteoclastogenesis tuning” (Cell Communication and Signaling : CCS, 2021)

Key:
RAW264.7 cells = experiment: RANKL-induced transcription of osteoclastogenesis markers in RAW264.7 cells (real-time PCR); assay type: cell-based, murine
Outline: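 RAW264.7 cells in α-MEM/10% FBS were treated with 15–30 ng/mL RANKL, refreshed every 48 h, with or without GPR55 ligands (e.g. 0.5 µM ML-191, 30 µM O1918, 1 µM LPI) or 150 nM peptide-P1. Marker mRNA was quantified by SYBR Green real-time PCR normalised to β2-microglobulin; Gpr55 was knocked down by siRNA where applied.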

[1] = system: GPR55-silenced HeLa cells; experiment: LPI-induced ERK1/2 and p38 phosphorylation in shGPR55-HeLa clones (Western blot); assay type: cell-based, human
Method: For stable interference of GPR55, HeLa cells were plated at 1.5 × 10^5 cells/well in six-well plates in growth medium without antibiotics, and 24 h later, the cells were transfected with 1.7 µg/well OmicsLink short hairpin (sh)RNA expression clone CSHCTR001-CU6 (shCTRL) or clone HSH022476-3-CU6 (shGPR55) from GeneCopoeia (Rockville, MD, USA), using Lipofectamine 2000, according the manufacturer instructions. Forty-eight hours after transfection, HeLa clones stably expressing shRNAs were selected in growth medium containing 0.3 µg/mL puromycin. The efficiency of interference was monitored by real-time PCR using the primers listed in the Additional file 1: Table S1. HPRT1 was followed as a housekeeping gene.
Twenty-four hours after transfection (HEK293T, HeLa cells or clones) or 72 h after interference (RAW264.7 cells), the cells were washed twice with HBSS^++, serum deprived (HEK293T cells for 4 h in DMEM; HeLa cells and clones for 2 h in MEM plus 2 mM glutamine and 25 mM HEPES; RAW264.7 cells for 2 h in DMEM), washed once again with HBSS^++, incubated in stimulation buffer (HBSS^++ with 10 mM HEPES, 0.4% faf-BSA for HEK293T cells; HBSS^++ with 25 mM HEPES and 0.01% faf-BSA for HeLa cells, clones, and RAW264.7 cells) in the absence or presence of stimuli, at 37 °C for the indicated times. Incubations were terminated by washing the cells twice with cold HBSS^++, and the analyses were performed as reported below.
Cell lysates were obtained by scraping the cells into phospho-lysis buffer: 50 mM Tris–HCl, pH 7.5, 100 mM NaCl, 5 mM EDTA, 1% Triton X-100, 50 mM NaF, 40 mM β-glycerophosphate, 200 µM sodium orthovanadate, plus protease and phosphatase inhibitors (Roche). […]
Protein lysates were subjected to SDS-PAGE, and after electrophoresis, the proteins were transferred to a nitrocellulose membrane (PerkinElmer Life Science, Boston, MA, USA). […] The membranes were then washed twice with T-TBS and once with TBS for 5 min, and the signals were detected by ECL (Amersham Pharmacia, Piscataway, NJ, USA). […]

lysophosphatidylinositol [LPI]
further stimulation of RANKL-induced Trap transcription (RAW264.7 cells; 1 µM soybean LPI, 24 h): 0.2 -fold
increase in RANKL-induced Cathepsin-k mRNA (RAW264.7 cells; 1 µM soybean LPI, 24 h): 1.4 -fold
further stimulation of RANKL-induced Ctr transcription (RAW264.7 cells; 1 µM soybean LPI, 48 h): 2.4 -fold
further stimulation of RANKL-induced Nfatc1 transcription (RAW264.7 cells; 1 µM soybean LPI, 48 h): 1.1 -fold
further stimulation of RANKL-induced Trap transcription (RAW264.7 cells; 1 µM soybean LPI, 48 h): 0.7 -fold
increase in RANKL-induced Cathepsin-k mRNA (RAW264.7 cells; 1 µM soybean LPI, 48 h): 1.2 -fold
further stimulation of RANKL-induced Ctr transcription (RAW264.7 cells; 1 µM soybean LPI, 72 h): 1.6 -fold
further stimulation of RANKL-induced Trap transcription (RAW264.7 cells; 1 µM soybean LPI, 72 h): 0.7 -fold
modulation of RANKL-induced Cathepsin-k transcription (RAW264.7 cells; 1 µM soybean LPI, 72 h): no modulation
effect on Mmp-9 transcription (RAW264.7 cells; 1 µM soybean LPI, any of the times analysed): no effects on Mmp-9 transcription
effect on osteoclastogenesis marker transcription after washout (RAW264.7 cells; LPI washout after the initial 24 h, data not shown): did not produce any significant effects
RANKL-induced transcription of Ctr, si-NT versus si-GPR55 cells (RAW264.7 cells; RANKL 15 ng/mL, 72 h, 1 µM soybean LPI or 1 µM ML-184): similarly increased RANKL-induced transcription of Ctr only in precursor cells treated with non-targeting siRNAs, and not in those silenced for GPR55
LPI response of empty vector (pcDNA3.1) transfected clones ([1]; 10 µM 18:0 LPI): did not respond to LPI addition
ERK1/2 and p38 activation ([1]; 10 µM soybean LPI, or 1 µM ionomycin 5 min): did not show any ERK1/2 and p38 activation
